Reference: paper PMC4920105, “Identification and Development of 2,3-Dihydropyrrolo[1,2-a]quinazolin-5(1H)-one Inhibitors Targeting Bromodomains within the Switch/Sucrose Nonfermenting Complex” (Journal of Medicinal Chemistry, 2016)
Where “and” joins values, the source holds several entries; their conditions need not be identical. Identical values can stand only once. Values belong to the compound of their own block, whether it stands above or below them.

Key:
[1] = molecular target: T1, PB1(5) (Homo sapiens, UniProt Q86U86); experiment: DSF Tm shift assay, PB1(5) bromodomain; type: binding; details: 10 μM inhibitor, average of three replicates
T1 construct: the fifth bromodomain of PB1 (PB1(5)); made in house

[2] = molecular target: T2, TRIM33B (Homo sapiens, UniProt Q9UPN9); experiment: DSF Tm shift assay, TRIM33B; type: binding; details: 10 μM, single measurement
T2 construct: representative bromodomains (PCAF, BRD4(1), CREBBP, TRIM33B) from other subfamilies using DSF; made in house
T2 sequence (Q9UPN9 957-1063 isoform Q9UPN9-2 limits assumed): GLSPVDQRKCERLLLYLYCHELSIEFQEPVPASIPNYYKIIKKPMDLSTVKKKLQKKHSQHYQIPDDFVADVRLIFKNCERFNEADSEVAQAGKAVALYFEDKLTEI
Procedure: (§1) Protein Expression and Purification.
(§2) Proteins were cloned, expressed, and purified as previously described.1 […]
(§3) Bromodomain DSF Tm assays were performed using a Mx3005p real-time PCR machine (Agilent) and low profile 96-well PCR plates (AB-0700, Life Technologies). Protein was buffered in 10 mM HEPES, pH 7.5, 500 mM NaCl and assayed at a concentration of 2 µM with 10 µM inhibitor concentration and 1:1000 SyproOrange (Invitrogen). Excitation and emission filters were set to 465 and 590 nm respectively. The temperature was raised by 3 °C per 1 min from 25–95 °C, and fluorescence readers were taken at each interval. Data analysis was carried out as described previously.2
(§4) AlphaScreen Displacement Assay.
(§5) AlphaScreen assays were based on a reported protocol, with minor variations.3 In place of a biotinylated peptide, a biotinylated ligand was used at 25 nM final concentration.
(§6) Isothermal Calorimetry Experiments.
(§7) Calorimetric experiments were performed on a VP-ITC micro-calorimeter (MicroCalTM, LLC Northampton, MA). Protein solutions were buffer exchanged by dialysis into buffer 20 mM Hepes pH 7.5, 150 mM NaCl, and 0.5 mM TCEP. All measurements were carried out at 293.15 K while stirring at 286 rpm. The micro syringe was loaded with protein solutions ranging from […]

[3] = molecular target: T1, PB1(5); experiment: Isothermal calorimetry (ITC), PB1(5) bromodomain; type: binding; details: for K × 10^6 (M^–1): 293.15 K
[4] = molecular target: T3, CREBBP (Homo sapiens, UniProt Q92793); experiment: DSF Tm shift assay, CREBBP; type: binding; details: 10 μM, single measurement
T3 construct: representative bromodomains (PCAF, BRD4(1), CREBBP, TRIM33B) from other subfamilies using DSF; made in house
Procedure: as §1, §2, §3, §4, §5, §6, §7

[5] = molecular target: T4, PCAF (Homo sapiens, UniProt Q92831); experiment: DSF Tm shift assay, PCAF; type: binding; details: 10 μM, single measurement
T4 construct: representative bromodomains (PCAF, BRD4(1), CREBBP, TRIM33B) from other subfamilies using DSF; made in house
T4 sequence (Q92831 723-827 limits assumed): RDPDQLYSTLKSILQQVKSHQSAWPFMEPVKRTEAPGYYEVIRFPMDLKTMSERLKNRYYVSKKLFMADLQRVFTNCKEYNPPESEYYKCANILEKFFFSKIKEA
Procedure: as §1, §2, §3, §4, §5, §6, §7

[6] = molecular target: T5, BRD4(1) (Homo sapiens, UniProt O60885); experiment: DSF Tm shift assay, BRD4(1); type: binding; details: 10 μM, single measurement
T5 construct: representative bromodomains (PCAF, BRD4(1), CREBBP, TRIM33B) from other subfamilies using DSF; made in house
Procedure: as §1, §2, §3, §4, §5, §6, §7

[7] = Solubility (qualitative); type: physicochemical; details: chlorinated derivatives
[8] = molecular target: SMARCA4 (Homo sapiens, UniProt P51532); experiment: Isothermal calorimetry (ITC), SMARCA4; type: binding
[9] = molecular target: T6, SMARCA2B (Homo sapiens, UniProt P51531); experiment: Isothermal calorimetry (ITC), SMARCA2B; type: binding
T6 construct: made in house
Procedure: as §1, §2, §3, §4, §5, §6, §7
for the cell. All injections for PB1(5) were performed using an initial injection of 2 μl followed by 30 injections of 8 μl with a duration of 16 sec per injection and a spacing of 240 sec between injection. Injections for SMARCA2B and SMARCA4 were performed using an initial injection of 2 μl followed by 35 injections of 8 μl with a duration of 16 sec per injection and a spacing of 240 sec between injection.The data were analyzed with the MicroCal ORIGIN software package employing a single binding site model. The first data point was excluded from the analysis.
Thermodynamic parameters were calculated (ΔG = ΔH - TΔS = -RTlnKB where ΔG, ΔH and ΔS are the changes in free energy, enthalpy and entropy of binding, respectively).
Fluorescence Recovery After Photobleaching (FRAP)
FRAP studies were performed essentially as described. In brief, U2OS cells were transfected (Fugene HD; Roche) with mammalian over-expression constructs encoding GFP fused to the N-terminus of full length wild-type or mutant SMARCA2 (1). The imaging system consisted of a Zeiss LSM 710 laser-scanning and control system (Zeiss) coupled to an inverted Zeiss Axio Observer.Z1 microscope equipped with a high-numerical-aperture (N. A. 1.3) 40 x oil immersion objective (Zeiss). […] FRAP and GFP fluorescence imaging were both carried out with an argon-ion laser (488 nm) and with a PMT detector set to detect fluorescence between 500-550 nm. […] The image datasets and fluorescence recovery data were exported from ZEN 2009, the microscope control

T6 sequence (P51531 1373-1493 isoform P51531-2 limits assumed): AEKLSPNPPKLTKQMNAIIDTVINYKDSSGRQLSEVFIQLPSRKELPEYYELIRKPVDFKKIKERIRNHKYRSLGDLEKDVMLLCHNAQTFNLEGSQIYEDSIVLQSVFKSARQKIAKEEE
Chain of SMARCA4 (P51532 1453-1564 limits assumed): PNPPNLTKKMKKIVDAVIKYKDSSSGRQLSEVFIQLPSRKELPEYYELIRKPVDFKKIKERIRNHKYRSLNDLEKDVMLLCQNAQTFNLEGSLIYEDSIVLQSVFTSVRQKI
T1 sequence (Q86U86 653-774): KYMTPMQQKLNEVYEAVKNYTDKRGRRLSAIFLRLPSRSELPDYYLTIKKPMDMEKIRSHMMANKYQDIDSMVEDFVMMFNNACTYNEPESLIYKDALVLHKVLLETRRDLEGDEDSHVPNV
T3 sequence (Q92793 1085-1192 limits assumed): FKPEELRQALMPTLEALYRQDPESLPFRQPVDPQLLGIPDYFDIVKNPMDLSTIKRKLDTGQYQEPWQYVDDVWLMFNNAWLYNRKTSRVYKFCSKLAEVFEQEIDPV

- ΔTm at 10 µM [1]: 0 °C
Structure (SMILES): Cc1cccc2c1c(=O)nc1n2CCC1 [Compound 16c]

- ΔTm at 10 µM [1]: -0.1 ± 0.8 °C
Structure (SMILES): O=c1nc2n(c3cccc(F)c13)CCC2 [Compound 17c]

- TRIM33B Tm [2]: 0.2 °C
- TΔS [3]: 3.018 kcal/mol and 3.0 kcal/mol
- ΔG [3]: -9.195 kcal/mol
- K × 10^6 (M^–1) [3]: 7.29 × 10^6 M^–1
- CREBBP Tm [4]: 0.0 °C
- PCAF Tm [5]: 0.2 °C
- BRD4(1) Tm [6]: 0.3 °C
Structure (SMILES): CN(C)/C=C1\CCn2c1nc(=O)c1c(Cl)cccc12 [Compound 18]

- ΔTm at 10 µM [1]: 2.6 ± 0.3 °C
Structure (SMILES): O=c1nc2n(c3cccc(Cl)c13)CCC2 [Compound 18c, 6-chloro-2,3-dihydropyrrolo[1,2-a]quinazolin-5(1H)-one]

- ΔTm at 10 µM [1]: 3.1 ± 0.3 °C
Structure (SMILES): O=c1nc2n(c3cccc(Br)c13)CCC2 [Compound 19c]

- ΔTm at 10 µM [1]: -0.6 ± 0.5 °C
Structure (SMILES): COc1cccc2c1c(=O)nc1n2CCC1 [Compound 20c]

- ΔTm at 10 µM [1]: -0.1 ± 0.4 °C
Structure (SMILES): O=c1nc2n(c3cccc(O)c13)CCC2 [Compound 21c]

- TRIM33B Tm [2]: -0.1 °C
- DMSO and aqueous solubility [7]: greatly improved
- TΔS [3]: 4.043 kcal/mol and 4.0 kcal/mol
- ΔG [3]: -9.243 kcal/mol
- K × 10^6 (M^–1) [3]: 7.86 × 10^6 M^–1
- CREBBP Tm [4]: 0.0 °C
- BRD4(1) Tm [6]: 1.0 °C
Structure (SMILES): O=c1nc2n(c3cccc(Cl)c13)CC/C2=C\N1CCCCC1 [Compound 24]

- TRIM33B Tm [2]: 0.9 °C
- CREBBP Tm [4]: 0.1 °C
- PCAF Tm [5]: 0.8 °C
Structure (SMILES): O=c1nc2n(c3cccc(Cl)c13)CC/C2=C\N1CCOCC1 [Compound 25]

- K×10^6 (M-1) [8]: 2.40 ×10^6 M-1
- TΔS [8]: 4.835 kcal/mol
- ΔG [8]: -4.838 kcal/mol
- ΔH [8]: -3.727 kcal/mol
- DMSO and aqueous solubility [7]: greatly improved
- ΔG [3]: -9.272 kcal/mol
- K × 10^6 (M^–1) [3]: 8.09 × 10^6 M^–1
- K×10^6 (M-1) [9]: 3.81 ×10^6 M-1
- TΔS [9]: 5.508 kcal/mol
- ΔG [9]: -8.810 kcal/mol
- ΔH [9]: -3.302 kcal/mol
Structure (SMILES): CN1CCN(/C=C2\CCn3c2nc(=O)c2c(Cl)cccc23)CC1 [Compound 26]

- DMSO and aqueous solubility [7]: greatly improved
- TΔS [3]: 4.7 kcal/mol
- ΔG [3]: -9.198 kcal/mol
- K × 10^6 (M^–1) [3]: 7.05 × 10^6 M^–1
Structure (SMILES): CCN1CCN(/C=C2\CCn3c2nc(=O)c2c(Cl)cccc23)CC1 [Compound 27]

- K×10^6 (M-1) [8]: 0.49 ×10^6 M-1
- TΔS [8]: 6.446 kcal/mol
- ΔG [8]: -7.620 kcal/mol
- ΔH [8]: -1.174 kcal/mol
- TΔS [3]: 2.362 kcal/mol and 2.3 kcal/mol
- ΔG [3]: -9.110 kcal/mol
Structure (SMILES): CCC(/C=C1\CCn2c1nc(=O)c1c(Cl)cccc12)CC [Compound 28]
